# Data as given in patent US8575135B2 (Gilead Sciences, Inc., priority 2011, dated 2013).
# Read-outs that look alike come from different tables or passages of the source.
# Assays:
# [1] = tested on: NS5A chimeric genotype 2a JFH-1 replicon with genotype 2b MD2b-1 strain NS5A gene (M31 present); assay: microbe, parasite or virus in culture; assay type: cell-based, HCV; details: Hepatitis C virus
# Procedure, shortened: (§1)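 Genotype 3a (S52) and 4a (ED43) NS5A chimeras use 1b Con1 Pi-RLuc replicons, transfected transiently; 2b MD2b-1 NS5A chimera (M31) uses 2a JFH-1 RLuc-Neo replicon, transient or stable.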
# [2] = tested on: NS5A chimeric genotype 1b Con1 replicon with genotype 3a S52 strain NS5A gene; assay: microbe, parasite or virus in culture; assay type: cell-based, HCV; details: Hepatitis C virus
# Procedure, shortened: as §1
# [3] = tested on: NS5A chimeric genotype 2a JFH-1 replicon with genotype 2a J6 strain NS5A gene (M31 present); assay: microbe, parasite or virus in culture; assay type: cell-based, HCV; details: Hepatitis C virus
# [4] = tested on: stable HCV 2a JFH-1 Rluc replicon cells (L31 present in NS5A); assay: microbe, parasite or virus in culture; assay type: cell-based; details: Hepatitis C virus
# [5] = tested on: 1a Pi-Rluc replicon with Q30R in genotype 1a NS5A; assay: microbe, parasite or virus in culture; assay type: cell-based, HCV; details: Hepatitis C virus
# Procedure, shortened: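 Renilla luciferase replicon assay: 1a Pi-RLuc replicon carrying NS5A Q30R, transfected transiently into cured-51 (Huh-7-derived) cells.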
# [6] = tested on: stable HCV 1a RLuc replicon cells (genotype 1a H77 replicon); assay: microbe, parasite or virus in culture; assay type: cell-based; details: Hepatitis C virus
# [7] = IV and PO single dose pharmacokinetic studies in SD rats; assay type: in vivo; details: male, Sprague-Dawley, rat, plasma, IV infusion 1 mg/kg vs oral gavage 2 mg/kg, read-out: Rat % F
# Experimental: IV and PO Single Dose Pharmacokinetic Studies in SD Rats: The pharmacokinetics of selected compounds was characterized in male Sprague-Dawley (SD) rats (250-300g). […] The intravenous (IV) dosing vehicle was 5% ethanol, 35% polyethylene glycol 400 (PEG 400) and 60% water pH 2.0. […] Serial blood samples (approximately 0.3 mL each) were collected from jugular vein or other suitable vein at specified time points. […] The blood samples were collected into Vacutainer™ tubes containing EDTA-K3 as the anti-coagulant and were centrifuged at approximately 4° C. to obtain plasma. The plasma samples were stored at −20° C. until analysis by LC/MS/MS. A bioanalytical method utilizing high performance liquid chromatography coupled to tandem mass spectrometry (LC/MS/MS) was developed for analysis of the selected compound in rat plasma. Detection was performed using selected reaction monitoring (SRM); […] Standard curve and quality control samples were prepared in male rat plasma and processed in the same way as the test samples to generate quantitative data. Pharmacokinetic parameters were generated using non-compartmental pharmacokinetic analysis (Phoenix WinNonlin, version 6.3). Values below the lower limit of quantification (LLOQ) were assigned a value of zero if predose and treated as missing thereafter. Area under the curve (AUC) was calculated using the linear trapezoidal rule. The oral bioavailability (% F) was determined by comparison of the area under the curve (AUC) of the compound and/or a metabolite generated in plasma following oral administration to that generated following intravenous administration.
compound,measurement,setting,value
"COC[C@H]1C[C@@H](c2ncc(-c3ccc4c(c3)COc3cc5c(cc3-4)CCc3nc([C@@H]4CC[C@H](C)N4C(=O)[C@@H](NC(=O)OC)C(C)C)[nH]c3-5)[nH]2)N(C(=O)[C@H](NC(=O)OC)c2ccccc2)C1 [Example OH, methyl {(1R)-2-[(2S,4S)-2-(5-{2-[(2S,5S)-1-{(2S)-2-[(methoxycarbonyl)amino]-3-methylbutanoyl}-5-methylpyrrolidin-2-yl]-1,4,5,11-tetrahydroisochromeno[4′,3′:6,7]naphtho[1,2-d]imidazol-9-yl}-1H-imidazol-2-yl)-4-(methoxymethyl)pyrrolidin-1-yl]-2-oxo-1-phenylethyl}carbamate]",EC50,[1]; read-out: 2b,< 1 nM
same,EC50,[1]; read-out: 2b (s) (nM),0.022 nM
same,EC50,[1]; read-out: 2b (t) (nM),0.023 nM
same,EC50,[2]; read-out: 3a,< 1 nM
same,EC50,[2]; read-out: 3a (nM),0.026 nM
same,EC50,[3]; read-out: 2a J6,< 1 nM
same,EC50,[3]; read-out: 2a Jb (t) (nM),0.054 nM
same,EC50,[4]; read-out: 2a JFH,< 1 nM
same,EC50,[4]; read-out: 2a JFH (nM),0.007 nM
same,EC50,[5]; read-out: 1a Q30R,< 1 nM
same,EC50,[5]; read-out: 1a Q30R (nM),0.031 nM
same,EC50,[6]; read-out: 1a,< 1 nM
same,EC50,[6]; read-out: 1a (nM),0.016 nM
same,bioavailability,[7],22.7%
"COC[C@H]1C[C@@H](c2nc3ccc4cc5c(cc4c3[nH]2)OCc2cc(-c3cnc([C@@H]4CC[C@H](C)N4C(=O)[C@@H](NC(=O)OC)C(C)C)[nH]3)ccc2-5)N(C(=O)[C@@H](NC(=O)OC)[C@@H](C)OC)C1 [Example OM, Methyl {(2S)-1-[(2S,4S)-2-(5-{2-[(2S,5S)-1-{(2S,3R)-3-methoxy-2-[(methoxycarbonyl)amino]butanoyl}-4-(methoxymethyl)pyrrolidin-2-yl]-1,11-dihydroisochromeno[4′,3′:6,7]naphtho[1,2-d]imidazol-9-yl}-1H-imidazol-2-yl)-5-methylpyrrolidin-1-yl]-3-methyl-1-oxobutan-2-yl}carbamate]",EC50,[1]; read-out: 2b,< 1 nM
same,EC50,[1]; read-out: 2b (s) (nM),0.054 nM
same,EC50,[1]; read-out: 2b (t) (nM),0.053 nM
same,EC50,[2]; read-out: 3a,< 1 nM
same,EC50,[2]; read-out: 3a (nM),0.035 nM
same,EC50,[3]; read-out: 2a J6,< 1 nM
same,EC50,[3]; read-out: 2a Jb (t) (nM),0.045 nM
same,EC50,[4]; read-out: 2a JFH,< 1 nM
same,EC50,[4]; read-out: 2a JFH (nM),0.009 nM
same,EC50,[5]; read-out: 1a Q30R,< 1 nM
same,EC50,[5]; read-out: 1a Q30R (nM),0.035 nM
same,EC50,[6]; read-out: 1a,< 1 nM
same,EC50,[6]; read-out: 1a (nM),0.014 nM
same,bioavailability,[7],12.2%
"COC[C@H]1C[C@@H](c2nc3c([nH]2)-c2cc4c(cc2CC3)-c2ccc(-c3cnc([C@@H]5CC[C@H](C)N5C(=O)[C@@H](NC(=O)OC)C(C)C)[nH]3)cc2CO4)N(C(=O)[C@H](NC(=O)OC)c2ccccc2)C1 [Example OP, Methyl {(1R)-2-[(2S,4S)-2-(9-{2-[(2S,5S)-1-{(2S)-2-[(methoxycarbonyl)amino]-3-methylbutanoyl}-5-methylpyrrolidin-2-yl]-1H-imidazol-5-yl}-1,4,5,11-tetrahydroisochromeno[4′,3′:6,7]naphtho[1,2-d]imidazol-2-yl)-4-(methoxymethyl)pyrrolidin-1-yl]-2-oxo-1-phenylethyl}carbamate]",EC50,[1]; read-out: 2b,< 1 nM
same,EC50,[1]; read-out: 2b (s) (nM),0.007 nM
same,EC50,[1]; read-out: 2b (t) (nM),0.011 nM
same,EC50,[2]; read-out: 3a,< 1 nM
same,EC50,[2]; read-out: 3a (nM),0.027 nM
same,EC50,[3]; read-out: 2a J6,< 1 nM
same,EC50,[3]; read-out: 2a Jb (t) (nM),0.018 nM
same,EC50,[4]; read-out: 2a JFH,< 1 nM
same,EC50,[4]; read-out: 2a JFH (nM),0.008 nM
same,EC50,[5]; read-out: 1a Q30R,< 1 nM
same,EC50,[5]; read-out: 1a Q30R (nM),0.026 nM
same,EC50,[6]; read-out: 1a,< 1 nM
same,EC50,[6]; read-out: 1a (nM),0.013 nM
same,bioavailability,[7],15.1%
CC[C@H](C)[C@H](NC(=O)OC)C(=O)N1[C@@H](C)CC[C@H]1c1ncc(-c2ccc3c(c2)COc2cc4c(ccc5nc([C@@H]6C[C@H](COC)CN6C(=O)[C@H](NC(=O)OC)c6ccccc6)[nH]c54)cc2-3)[nH]1 [Example OW],EC50,[1]; read-out: 2b,< 1 nM
same,EC50,[1]; read-out: 2b (t) (nM),0.008 nM
same,EC50,[2]; read-out: 3a,< 1 nM
same,EC50,[2]; read-out: 3a (nM),0.013 nM
same,EC50,[3]; read-out: 2a J6,< 1 nM
same,EC50,[3]; read-out: 2a Jb (t) (nM),0.009 nM
same,EC50,[4]; read-out: 2a JFH,< 1 nM
same,EC50,[4]; read-out: 2a JFH (nM),0.006 nM
same,EC50,[5]; read-out: 1a Q30R,< 1 nM
same,EC50,[5]; read-out: 1a Q30R (nM),0.019 nM
same,EC50,[6]; read-out: 1a,< 1 nM
same,EC50,[6]; read-out: 1a (nM),0.009 nM
same,bioavailability,[7],13.3%
